According to patent US7157471B2, “Haloalkyl- and piperidine-substituted benzimidazole-derivatives” (Boehringer Ingelheim International GmbH, priority 2003, dated 2007):
Where a name gives a salt, the structure may show the parent alone.

Legend:
[1] = biological target: T1, human chemokine receptor CCR-3 (Homo sapiens, UniProt P51677); test: CCR-3 receptor binding assay (SPA) with 125Jodine-eotaxin-1; settings: membranes of hCCR-3 transfected K562 cells, radioligand 125J rhEotaxin, 2 hours incubation; read-out: Binding constants Ki (Eotaxin at CCR-3-Rezeptor)
T1 construct: expressed in transfected cells; host or cells: K562 cell line (membranes)
T1 sequence (P51677 1-355): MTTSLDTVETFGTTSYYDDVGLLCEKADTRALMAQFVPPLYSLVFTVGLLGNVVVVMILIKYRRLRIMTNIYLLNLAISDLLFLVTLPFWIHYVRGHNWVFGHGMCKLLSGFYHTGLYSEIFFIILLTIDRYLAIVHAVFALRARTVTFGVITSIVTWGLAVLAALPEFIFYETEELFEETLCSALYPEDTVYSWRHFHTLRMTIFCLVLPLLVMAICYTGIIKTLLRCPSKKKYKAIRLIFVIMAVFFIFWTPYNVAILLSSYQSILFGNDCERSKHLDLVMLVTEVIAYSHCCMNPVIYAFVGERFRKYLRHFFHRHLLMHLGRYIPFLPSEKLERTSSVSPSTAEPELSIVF
Method: The CCR-3 receptor binding test is based on a K562 cell line (leukemia myelogenic blast cells) transfected with the human chemokine receptor CCR-3 (hCCR-3-Cl). The cell membranes were prepared by disrupting the hCCR-3 transfected K562 cells by nitrogen […] and centrifugation at 40000 g, 4° C. for 1 h. The membranes were re-suspended in the SPA incubation buffer without bovine serum albumin for storage in aliquots at −80° C.
The CCR-3 receptor binding assay with the radioligand ^125Jodine-eotaxin-1 was performed in a Scintillation Proximity Assay (SPA) design. Cell membranes of hCCR-3 Cl cells were diluted in suitable concentrations (0.5–5 ug protein/well) in 96 well microtiter plates (1450–401, Wallac).
The test incubation mixture comprising 60 μl of the membrane suspension, 80 μl of the Wheat Germ Agglutinin coated PVT beads (organic scintillator, Amersham Pharmacia biotech) in a concentration of 0,4 mg and 40 μl of radiolabelled ^125J rhEotaxin (Amersham, IM290) were incubated with 20 μl of the test compound (dissolved in DMSO dilutions) for 2 hours. […] Bound radioactivity was determined by scintillation counter (Micro Beta “Trilux”, Wallac).
Determination of affinity of test compounds (dissociation constant Ki) was calculated by iterative fitting of experimental data using the law of mass action based program “easy sys” (Schittkowski, Num Math 68, 129–142 (1994)).

Structure (SMILES)	Ki [1] [nM]	melting point [°C]
Fc1ccc(SCCCN2CCC(n3c(C(F)(F)C(F)(F)F)nc4cc(F)ccc43)CC2)cc1 [Example 6, 2-Pentafluoroethyl-5-fluoro-1-{1-[3-(4-fluoro-phenylsulfanyl)-propyl]-piperidin-4-yl}-1H-benzoimidazole]	110	–
Fc1ccc(SCCCN2CCC(n3c(C(F)(F)C(F)(F)F)nc4cc(F)ccc43)CC2)cc1 (as salt: hydrochloride) [Example 6, 2-Pentafluoroethyl-5-fluoro-1-{1-[3-(4-fluoro-phenylsulfanyl)-propyl]-piperidin-4-yl}-1H-benzoimidazole]	–	208 to 209
Fc1ccc(SCCCN2CCC(n3c(CC(F)(F)F)nc4cc(F)ccc43)CC2)cc1 [Example 10, 2-(2,2,2-Trifluoroethyl)-5-fluoro-1-{1-[3-(4-fluoro-phenylsulfanyl)-propyl]-piperidin-4-yl}-1H-benzoimidazole]	19	–
Fc1ccc(SCCCN2CCC(n3c(CC(F)(F)F)nc4cc(F)ccc43)CC2)cc1 (as salt: hydrochloride) [Example 10, 2-(2,2,2-Trifluoroethyl)-5-fluoro-1-{1-[3-(4-fluoro-phenylsulfanyl)-propyl]-piperidin-4-yl}-1H-benzoimidazole]	–	158 to 160
